SMILES strings stand for the structures.

One may read the melting point as the temperature, or range, at which the solid turns liquid. Consider `CC(=O)c1ccc(-c2ccc(F)cc2F)cc1`, for which the melting point fell in the range of 82.5 to 83.5 °C.

`CCC(=O)c1cc(-c2cccc(OCc3ccc(COC(=O)c4ccccc4)c(COC(=O)c4ccccc4)c3)c2)cs1`: the melting point came to 117 °C.

As for `CNc1cc(NS(=O)(=O)c2ccc(C)cc2)nc(NC)n1`, the melting point lay within 270 to 272 °C.

As to `COC(=O)c1ccc(Cn2ncc3ccc(NC(=O)CC4CCCC4)cc32)c(OC)c1`, the melting point is 195 to 198 °C.

With `CC(=O)N1CCN(c2cccc(F)n2)CC1`, the melting point lay in the range of 102 to 103 °C.

As to `CC(C)CC(=O)C1CCC2C3CN(C(C)(C)C)C4=CC(=O)CCC4(C)C3CCC12CC(=O)O` (centres undefined), the melting point fell in the range of 169 to 171 °C.

As for `CC(=O)N1CCN=C1Nc1cc(C)nn1-c1ccc(Cl)c(Cl)c1`, the melting point fell in the range of 156 to 157 °C.

In turn, `[N-]=[N+]=NCc1cc(=O)c(OCc2ccccc2)cn1Cc1ccccc1` had a melting point of 120 °C.

Compound `Cc1ccc(C(=O)c2c(Br)cc(CC(=O)O)n2C)cc1` showed a melting point of 155 to 157 °C.

On to `CCN1CCc2cc(S(=O)(=O)C[N+](=O)[O-])ccc21`, for which the melting point turned out to be 122 °C.

In the case of `O=C(Nc1ccc(C(=O)N2CCCC(=NO)c3ccccc32)cc1)c1cc(Cl)cc(Cl)c1`, the melting point fell in the range of 272 to 273 °C.

Regarding `Cc1cc(CC(O)CO)c(OCc2ccccc2)c2c1CCC2` (centres undefined), the melting point lay within 77 to 80 °C.

`C#Cc1ccc2c(c1)N(c1ncnc3cc(OC)c(OC)cc13)CC2` registered a melting point of 241 to 243 °C.

Turning to `O=C(Nc1ccccc1)O[C@@H]1CN=C(c2ccc3ccccc3c2)O[C@H]1c1ccccc1` (racemic), the melting point came to 163 °C.

Take `CCOC(=O)c1cn(C[C@@H]2CN(c3ccc(N4CCC5(CC4)OCCO5)c(F)c3)C(=O)O2)nn1`: the melting point lay in the range of 168 to 170 °C.

As for `CCCCCc1ccc(CCc2ccc(-c3ccc([C@H]4CC[C@H](CCCCC)CC4)cc3F)cc2)cc1`, the melting point is 69 °C.

In turn, `O=C(Nc1ccc2cc(CN3CCCC3)cnc2c1F)c1ccc(-c2ccc(Cl)cc2)cc1` had a melting point of 206 to 208 °C.

Turning to `Cc1ccc2c(Cl)ccnc2c1N`, the melting point fell in the range of 75 to 77 °C.

With `Cc1ccc2oc(=O)c(NC(=O)Nc3ccc(F)cc3F)c(-c3ccccc3C)c2c1`, the melting point lay in the range of 213 to 214 °C.

`COC(=O)CC[C@H](NC(=O)OC(C)(C)C)C(=O)O`: the melting point was 74 to 77 °C.

On to `O=S(=O)(NC1CCCCC1)c1ccc(Nc2nccc(Cl)n2)cc1`, for which the melting point lay within 202 to 204 °C.

`CC(=O)N1CCc2cc(N)ccc21` came in with a melting point of 183 to 185 °C.

As for `N#Cc1ccc(S(=O)(=O)N2CCN(C(=O)C3CCN(c4ccncn4)CC3)CC2)cc1`, the melting point was in the range of 180 to 181 °C.

`Cc1ccccc1-n1c(C=Cc2ccccn2)nc2ccsc2c1=O` came in with a melting point of 203 °C.

The compound `COc1ccc2c(=O)cc(-c3ccc(OCC(O)CNC4CC4)cc3)oc2c1` (centres undefined) came in with a melting point of 105 to 106 °C.

In turn, `CCCCCCCCOc1ccc(C(=O)Oc2ccc(C3CCC(O)CC3)cc2)cc1` (centres undefined) yielded a melting point of 111 to 112 °C.

The compound `S=C(NCCN(Cc1ccc(Cl)c(Cl)c1)c1ccc(Br)cn1)Nc1ccc2nn[nH]c2c1` gave a melting point of 190 to 192 °C.

The compound `CC1=C(C(=O)OCC2CCCO2)C(c2cccc([N+](=O)[O-])c2)C(C(=O)OCC2CCCO2)=C(C)N1` (centres undefined) yielded a melting point of 122 to 123 °C.

In turn, `c1coc(CNCc2ccc(-c3cc4ncnc(Nc5ccc6[nH]ccc6c5)c4s3)cc2)c1` registered a melting point of 125 to 134 °C.

Compound `O=C(CCCCC1(C(=O)O)CCCC1)CCCCC1(C(=O)O)CCCC1` had a melting point of 99 to 103 °C.

On to `CCC(C)Oc1ccc(OCCNC(=O)C2CC2)cc1` (centres undefined), for which the melting point lay in the range of 65 to 68 °C.

As to `COc1nc(N2C(=O)C3CCCCN3C2=O)c(F)cc1C#N` (centres undefined), the melting point lay within 159 to 170 °C.

Consider `NC1COC2=CC3=C(OCCC3)C(=O)C21` (centres undefined), for which the melting point was over 260 °C.

In the case of `CCCOc1cc(C(=O)O)cc(N)c1Cc1ccccc1`, the melting point was in the range of 161 to 162 °C.

Turning to `CONC(=O)C=C1SC(Nc2c(Cl)cccc2Cl)=NC1=O`, the melting point fell in the range of 205 to 206 °C.

In turn, `COc1ccc(Cn2ncnc2CO)cc1` yielded a melting point of 95 to 100 °C.

The compound `N[C@@H]1CN2C(=O)N(c3cc(Cl)nc(Cl)c3)C(=O)[C@@]2(Cc2ccc(OC(F)(F)F)cc2)C1` displayed a melting point of 151 °C.

On to `Nc1ccc(-c2cccc([N+](=O)[O-])c2)cc1O`, for which the melting point lay in the range of 175 to 176 °C.

On to `CCOC(=O)NC(=N)c1ccc(-n2cc(C)n(-c3ccc(CCC(=O)OC)cc3)c2=O)cc1`, for which the melting point was 198 to 199 °C.

`CCOC(=O)c1c(S(=O)Cc2nccn2C)nc2cc(OC)c(OC)cc2c1-c1ccc(OC)c(OC)c1` (centres undefined): the melting point was 151 to 152 °C.

In turn, `Cc1ccc(-c2cc(Cl)c3ccc(C)cc3n2)cc1` came in with a melting point of 110 to 111 °C.

`CCN(C=O)C1CCC(CNc2nc3c(s2)CCOc2ccccc2-3)CC1` (centres undefined) displayed a melting point of 210 to 213 °C.

In turn, `CN(C)C(=O)n1nc(C(C)(C)C)nc1SC(NS(C)(=O)=O)NS(C)(=O)=O` had a melting point of 83 to 85 °C.

`Nc1cccc(-c2ccc(CCN3CCN(c4cccc(C(F)(F)F)c4)CC3)cc2)n1`: the melting point lay within 189 to 191 °C.

In turn, `CCNC(C)c1cc(S(N)(=O)=O)sc1S(=O)(=O)CC` (centres undefined) yielded a melting point of 135 to 138 °C.

Turning to `O=C(Nc1cccc(Cl)c1)ONC1=Nc2ccc(Cl)cc2C(c2ccccc2)=NC1`, the melting point is 158 to 159 °C.

`COc1ccc(C2(C#Cc3cccc(N)c3)CCCC(=O)C2)cc1OC1CCCC1` (centres undefined) yielded a melting point of 100 to 102 °C.

Regarding `CCCCc1nc2c(N)nc3ccccc3c2n1OC(C)C`, the melting point was in the range of 118 to 119 °C.

The compound `COc1ccc(Cl)cc1C1=NCCO1` came in with a melting point of 100 to 101 °C.

As for `CNC1Cc2ccccc2C1Nc1ccc(Cc2ccccc2)cc1` (centres undefined), the melting point fell in the range of 137 to 138 °C.

Take `CCOC(=O)C(C)(C)Oc1ccc(CNC(=O)c2sc(-c3ccc(C(C)C)cc3)nc2C)cc1C`: the melting point was in the range of 129 to 131 °C.

The compound `CCOC(=O)NN1CCc2ccccc2C(Oc2ccc(C(F)(F)F)cc2)C1` (centres undefined) gave a melting point of 156 to 157 °C.

Compound `NS(=O)(=O)Oc1ccc(C(F)(F)F)cc1` returned a melting point of 111 to 112 °C.

As for `CCCCCCCCCCCC#Cc1ccccc1C=C(P(=O)(O)O)P(=O)(O)O`, the melting point fell in the range of 141 to 142 °C.

In the case of `Cc1cn(C(C)(C)C(=O)N(C)C)nc1-c1ccccc1C#N`, the melting point was in the range of 124 to 126 °C.

The compound `COc1c(N2CCC(NC(=O)OC(C)(C)C)C2)c(F)cc2c(=O)c(C(=O)O)cn(C3CC3)c12` (centres undefined) had a melting point of 224 to 226 °C.

In turn, `CCc1ccccc1OCC(C)NC(=O)C(C#N)C(C)(C)C` (centres undefined) yielded a melting point of 94 to 97 °C.

`COc1ccc(-c2ccc(C(=O)Nc3ccc4nc(CN5CCCCC5)ccc4c3)cc2)cc1`: the melting point is 192 to 194 °C.

As to `Cn1nc(Br)c([N+](=O)[O-])c1NCCO`, the melting point amounted to 150 °C.

`COc1ccc2c(c1)C=Cn1c(nnc1S(C)=O)C2` (centres undefined): the melting point is 241 to 242 °C.

`CCCCOC(=O)CN1CCC(NC(=O)OC(C)(C)C)CC1` had a melting point of 116 °C.

`CN(C)C(=O)n1nc(-c2ccncc2)nc1-c1ccncc1` displayed a melting point of 140 to 142 °C.

The compound `O=C(Nc1ccc(OCCN2CCCC2=O)c2ccccc12)c1cc(F)cc(N2CCCCC2)c1` gave a melting point of 161 to 162 °C.

`Nc1ccc(OCc2nc3cc(F)ccc3s2)cc1` displayed a melting point of 125 to 128 °C.

Turning to `CN1C(=O)CC(c2ccccc2)C1C(O)C#Cc1ccccc1` (centres undefined), the melting point was in the range of 152 to 153 °C.

With `COc1ccc2c(c1)C(=NO)CCO2`, the melting point fell in the range of 120 to 121 °C.

`c1ccc(CN2CCC(Nc3ccc4[nH]ncc4c3)CC2)cc1` registered a melting point of 150 to 152 °C.

On to `Cc1cccc(C(=O)CC(=O)C2CCCC2)c1O`, for which the melting point was in the range of 74 to 75 °C.

As for `CCCCCCCCc1ccc(CCC(NC(C)=O)(C(=O)OCC)C(=O)OCC)cc1`, the melting point was found to be 61 °C.

Compound `COc1cc2c(N)nc(Cl)nc2c(OC)c1OC` came in with a melting point of 244 to 245 °C.

`CCCCCCCCCCCCCCCCCCN(C)C(=O)c1ccc(Cl)c([N+](=O)[O-])c1` returned a melting point of 55 to 56 °C.

Turning to `O=C(C=Cc1ccccn1)Nc1nnn[nH]1`, the melting point was in the range of 275 to 276 °C.

For the compound `CC1(COC(=O)c2ccccc2)COC(CBr)(c2ccc(Cl)cc2Cl)OC1` (centres undefined), the melting point is 139 to 142 °C.

In the case of `CC(C)(C)C(=O)c1c[nH]c2ncc(-c3ccc(S(N)(=O)=O)cc3)nc12`, the melting point fell in the range of 277 to 278 °C.

`COc1ccc2[nH]cc(CCCCN3CC=C(c4cccs4)CC3)c2c1` gave a melting point of 158 °C.

Compound `O=C(O)C1=Cc2cc(C(=O)Cc3ccccc3)ccc2OC1C(F)(F)F` (centres undefined) had a melting point of 159 to 164 °C.

Compound `CCOC(=O)CCNC(=O)N1CCc2cc(S(=O)(=O)N3CCN(c4cccc(Cl)c4)CC3)ccc21` came in with a melting point of 162 °C.

`COc1ccc(N=C(NC(=S)NCc2cccnc2)c2ccccc2)cc1` came in with a melting point of 142 to 143 °C.

For `Nc1ccc(SC2=CCCCC2)cc1[N+](=O)[O-]`, the melting point was in the range of 93 to 95 °C.

`CCS(=O)c1nsc(NC(=O)N(C)C)c1C#N` (centres undefined) returned a melting point of 162 to 163 °C.

Compound `Cc1nc2c3c(ccc2n1C)[C@@H](OCCF)[C@H](O)[C@@H](c1ccccc1)O3` showed a melting point of 226 °C.

For `CC(=O)Nc1c([N+](=O)[O-])cnn1-c1c(F)cc(C(F)(F)F)cc1Cl`, the melting point lay within 129 to 130 °C.

For the compound `C=CC(=O)CC1CN=C(c2cc3cccc(N(C)S(=O)(=O)c4cccs4)c3[nH]2)S1` (centres undefined), the melting point lay in the range of 157 to 158 °C.

With `OC(CCN1CC=C(c2ccccc2)CC1)c1cccc2ccccc12` (centres undefined), the melting point was 93 to 94 °C.

Compound `COC(=O)C(Cc1ccccc1)NC(=O)C(CC(=O)O)NC(=O)C(N)C(C)C(=O)O` (centres undefined) displayed a melting point of 172 to 175 °C.

Consider `C[C@@H](n1cnc2ccccc2c1=O)[C@](O)(Cn1cncn1)c1ccc(F)cc1F`, for which the melting point was 122 to 128 °C.

Turning to `CCOc1cc(C(=CC#N)c2ccc(NC(C)=O)cc2)ccc1OC`, the melting point is 175 to 177 °C.

With `COc1cccc(-n2c(=O)n(O)c(=O)c3cc(F)c(N4CCCC4)cc32)c1`, the melting point fell in the range of 216 to 218 °C.

`CC(C)C1NC(c2ccccc2)=NNC1=O` (centres undefined) had a melting point of 164 °C.

The record behind these values is a melting point compilation (Tetko et al.; mined from patent text by program, amines drawn as free bases though some values may be those of a salt).
